Here are results for three molecules from patent US7306923B2, “Methods for identification, and compounds useful for the treatment of degenerative & inflammatory diseases” (Galapagos N.V., priority 2004, dated 2007).

Experiment [1] concerns MMP1 expression by synovial fibroblasts. The experiment in a line: Inhibition of the response of SFs to supernatant of TNFα-triggered THP1 cells, MMP1 ELISA. The format is cell-based, human. The following applies: dexamethasone 100 nM, SB203580 5 μM, added 1 h before trigger with 2-fold diluted SN of TNFα-activated THP1 cells, 72 h. Here is the method: A 384-well format ELISA for measurement of MMP1 is developed. Various primary antibodies are tested, as well as various ELISA protocols. The following protocol is developed and validated to measure MMP1 levels in SF supernatant in 384 well plates: white Lumitrac 600 384 well plates (Greiner) are coated with 2 μg/ml anti-MMP1 antibody MAB1346 (Chemicon). The antibody is diluted in buffer 40 (1.21 g Tris base (Sigma), 0.58 g NaCl (Calbiochem) and 5 ml 10% NaN3 (Sigma) in 1 L milliQ water and adjusted to pH 8.5). After overnight incubation at 4° C., plates are washed with PBS (80 g NaCl, 2 g KCl (Sigma), 11.5 g Na2HPO4.7H2O and 2 g KH2PO4 in 10 L milliQ; pH 7.4) and blocked with 100 μl/well Casein buffer (2% Casein (VWR International) in PBS). Next day, casein buffer is removed from ELISA plates and replaced by 50 μl/well EC buffer (4 g casein, 2.13 g Na2HPO4 (Sigma), 2 g bovine albumin (Sigma), 0.69 g NaH2PO4.H2O (Sigma), 0.5 g CHAPS (Roche), 23.3 g NaCl, 4 ml 0,5 M EDTA pH 8 (Invitrogen), 5 ml 10% NaN3 in 1 L milliQ and adjusted to pH 7.0). 0.25 mM DTT (Sigma) is added to the thawed samples plates. After removal of the EC buffer, 20 μl of sample is transferred to the ELISA plates. […] Readout is performed on the Luminoscan Ascent Luminometer (Labsystems) with an integration time of 200 msec or with an Envision reader (Perkin Elmer). […]

Experiment [2] shares this test system. Description: MMP1 ELISA on SFs triggered with cytokines or supernatant of cytokine-treated THP1 cells. The class given is cell-based, human. The following applies: each cytokine 25 ng/ml or THP1 supernatant 2-fold diluted, 72 h, 96 well plates. Here is the method:
A 384-well format ELISA for measurement of MMP1 is developed. Various primary antibodies are tested, as well as various ELISA protocols. The following protocol is developed and validated to measure MMP1 levels in SF supernatant in 384 well plates: white Lumitrac 600 384 well plates (Greiner) are coated with 2 μg/ml anti-MMP1 antibody MAB1346 (Chemicon). The antibody is diluted in buffer 40 (1.21 g Tris base (Sigma), 0.58 g NaCl (Calbiochem) and 5 ml 10% NaN3 (Sigma) in 1 L milliQ water and adjusted to pH 8.5). After overnight incubation at 4° C., plates are washed with PBS (80 g NaCl, 2 g KCl (Sigma), 11.5 g Na2HPO4.7H2O and 2 g KH2PO4 in 10 L milliQ; pH 7.4) and blocked with 100 μl/well Casein buffer (2% Casein (VWR International) in PBS). Next day, casein buffer is removed from ELISA plates and replaced by 50 μl/well EC buffer (4 g casein, 2.13 g Na2HPO4 (Sigma), 2 g bovine albumin (Sigma), 0.69 g NaH2PO4.H2O (Sigma), 0.5 g CHAPS (Roche), 23.3 g NaCl, 4 ml 0,5 M EDTA pH 8 (Invitrogen), 5 ml 10% NaN3 in 1 L milliQ and adjusted to pH 7.0). […] Readout is performed on the Luminoscan Ascent Luminometer (Labsystems) with an integration time of 200 msec or with an Envision reader (Perkin Elmer).
The increase of MMP1 expression by SFs upon treatment with cytokines relevant in the field of RA (TNFα, IL1β and OSM) or a combination thereof is monitored. […]

As for `C[S+]([O-])c1ccc(-c2nc(-c3ccncc3)c(-c3ccc(F)cc3)[nH]2)cc1` (stereo not drawn) [SB203580], in experiment [1], the “MMP1 levels lower than control levels” value is 3 fold.

Turning to `C[C@@H]1C[C@H]2[C@@H]3CCC4=CC(=O)C=C[C@]4(C)[C@@]3(F)[C@@H](O)C[C@]2(C)[C@@]1(O)C(=O)CO` [dexamethasone], in experiment [1], the “MMP1 levels lower than control levels” value came to 4 fold.

For the molecule TNFα, in experiment [2], the “increase (induction) of MMP1 expression by SFs” value was approximately 3 fold.
